The source of these data is ChEMBL document CHEMBL1158995, “A novel perlactone from the Caribbean sponge Plakortis angulospiculatus” (J Nat Prod, 1991).

This assay concerns Candida albicans. The assay can be described thus: Antimicrobial activity against Candida albicans ATCC 32354. The format is functional, organism-based.

Each structure is given as a SMILES string. The source made the active and inactive calls. The calls are words filed in the database; no cut-off is given here.

In the case of `CC1=C(O)C(C)(CCCCCC(C)CCCCc2ccc(O)cc2)OOC1=O` (stereo unspecified), the result was inactive.
